The nature of series [1]: Balanced, randomized 4-phase cross-over study, Profile of Mood State (POMS) rating scale after intravenous administration. It counts as in vivo, healthy male volunteers. Particulars: for composite "Dysphoria" ratings: POMS Anger-Hostility plus Depression plus Tension-Anxiety, compared with placebo, Figure 3; for rank order of ratings of the three components of "Dysphoria" (Tension, Depression and Anger): four treatments, same order for each component, Figure 4; for vigor ratings: POMS Vigor-Activity, compared with 1-MPH and placebo, Figure 2; for effect on "Energy": POMS composite score (Vigor-Activity minus Fatigue-Inertia), Figure 1. As to the method: A balanced, randomized 4-phase cross-over study was carried out in 12 healthy male volunteers who each received intravenous administrations of dl-MPH, d-threo-methylphenidate (d-MPH), 1-MPH and placebo. The Profile of Mood State (POMS) rating scale was used to estimate pharmacodynamic factors including Anger-Hostility, Confusion-Bewilderment, Depression-Dejection, Fatigue-Inertia, Tension-Anxiety, and Vigor-Activity. In addition composite scores were also produced for "Energy" ("Vigor-Activity" minus "Fatigue-Inertia") and 'Dysphoria" ("Anger-Hostility" plus […] plus "Tension-Anxiety").
This paradox apparently arose because d-MPH enhanced both components of "Energy" (Vigor-Activity and Fatigue-Inertia) over the test period.
The Fatigue-Inertia factor was not a simple rebound phenomenon.
There were very robust effects of drug condition on composite "Dysphoria" ratings. The d-MPH and to a lesser extent dl-MPH both increased "Dysphoria" compared with the placebo or 1-MPH.
Figure 4 depicts the response of the three components of "Dysphoria" (Tension, Depression and Anger) to the four treatments. […] Thus it appears that the overall pharmacodynamic effect of dl-MPH may represent an interaction between the "Dysphoric" effects of d-MPH and the mildly euphoric effects of 1-MPH. It is conceivable that the 1-MPH will emerge as euphoriant or antidepressant in subjects with higher baseline "Dysphoria" scores such as depressed patients in whom the dose of 1-MPH will have to be titrated.

The conditions of series [2]: cited from earlier work.
The conditions of series [3]: mean ±SD in plasma; intravenous 10mg dl-MPH; 11 healthy male volunteers; cited from earlier work.
For series [4] the following is noted: oral, cited from earlier work.
Series [5] concerns the target central dopamine transporters (Homo sapiens, UniProt Q01959). Particulars: after oral administration of dl-MPH in humans; cited from earlier work.

Like-named read-outs stand apart in the source and are kept apart here. Marks after values point to notes of the source that are not given here.

As a reminder, the MRT is the average time that molecules of a dose stay in the body. As a reminder, the Vdss is a proportionality between amount in the body and measured concentration, not a real space.

Sequence of central dopamine transporters (Q01959 whole entry): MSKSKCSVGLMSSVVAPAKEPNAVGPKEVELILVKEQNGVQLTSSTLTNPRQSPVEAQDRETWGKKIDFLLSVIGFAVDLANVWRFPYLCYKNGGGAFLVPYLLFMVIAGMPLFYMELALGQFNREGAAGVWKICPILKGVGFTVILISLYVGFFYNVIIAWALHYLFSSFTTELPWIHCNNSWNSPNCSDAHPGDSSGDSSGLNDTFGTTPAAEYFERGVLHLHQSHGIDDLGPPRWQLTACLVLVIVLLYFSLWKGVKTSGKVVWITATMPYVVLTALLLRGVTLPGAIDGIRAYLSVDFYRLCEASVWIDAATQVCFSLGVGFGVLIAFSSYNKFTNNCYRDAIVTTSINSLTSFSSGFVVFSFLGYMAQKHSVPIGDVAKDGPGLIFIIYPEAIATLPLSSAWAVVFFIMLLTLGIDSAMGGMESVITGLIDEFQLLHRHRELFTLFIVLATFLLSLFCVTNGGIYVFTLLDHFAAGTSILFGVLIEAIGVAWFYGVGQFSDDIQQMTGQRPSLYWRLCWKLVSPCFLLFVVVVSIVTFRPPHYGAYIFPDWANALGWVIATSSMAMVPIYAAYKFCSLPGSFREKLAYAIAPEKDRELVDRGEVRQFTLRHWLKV

As for `COC(=O)[C@@H](c1ccccc1)[C@@H]1CCCCN1` [1-MPH, 2S,2'S-methyl 2-phenyl-2-(2'-piperidyl)acetate], in series [1], the “composite "Dysphoria" ratings” value was “numerically lower”; the “rank order of ratings of the three components of "Dysphoria" (Tension, Depression and Anger)” value (“rank order” below) was 1-MPH < placebo < dl-MPH < d-MPH. For the same compound, the “concentrations in plasma and brain” value in series [2] (after oral administration of dl-MPH, extensive enantioselective first pass metabolism) is “very low”. In series [3], the CL was 0.73±0.028^h L/kg.h^-1, the CLR is listed as 0.005±0.003^c l/kg.h^-1, the mean residence time (MRT) is on record as 2.44±0.51^b h and the Vdss is given as 1.80±0.91^b L/kg.

With `COC(=O)[C@H](c1ccccc1)[C@H]1CCCCN1` (racemic) [dl-MPH, dl-threo-methylphenidate], in series [1], the “composite "Dysphoria" ratings” value is reported as “increased”; the vigor ratings result is reported as “significantly different”; the “effect on "Energy"” value is on record as “enhanced”; the “rank order” value is recorded as 1-MPH < placebo < dl-MPH < d-MPH. Besides, in series [4] (3 subjects, decreased minimally), the “Hamilton depression scale decreased” value is < 30%. Further, the “Hamilton depression scale decreased” value in series [4] (7 subjects, depressive symptoms decreased markedly) is reported as > 55%. In series [4] (n = 16), the “benefit in depressed patients” value is “statistically and clinically significant”.

As to `COC(=O)[C@H](c1ccccc1)[C@H]1CCCCN1` [d-MPH, d-threo-methylphenidate], in series [1], the “composite "Dysphoria" ratings” value was “increased”; the vigor ratings entry is on record as “significantly different”; the “effect on "Energy"” value is “not strongly energizing”; the “rank order” value is 1-MPH < placebo < dl-MPH < d-MPH. In series [5], the “blocking central dopamine transporters” value is given as “very effective”. Besides, in series [2] (after oral administration of the racemic drug), the “absolute bioavailability (F)” value is listed as 0.25. Further, in series [3], the CLR is reported as 0.005±0.003 l/kg.h^-1, the MRT is 6.53 ± 1.62 h and the Vdss is 2.65 ± 1.11 L/kg.

The values are drawn from patent EP1163907A1, “Use of l-threo-methylphenidate for the treatment of depression” (Pharmaquest Limited, priority 2000, dated 2001).
